“Also recorded” adds a separate entry of the source. One block for each molecule: values may come before it.
Legend:
[1] = biological target: T1, human MNK (N-acetylmannosamine kinase) (Homo sapiens, UniProt Q9Y223); assay: MNK activity, coupled optical assay based on NADH consumption; assay type: biochemical; details: for IC50: purified human MNK, ManNAc 125 μM, ATP, means ± SEM, read-out: IC50 for MNK inhibition
T1 construct: His; made in house; host or cells: Escherichia coli BL21-CodonPlus (DE3)-RIL
T1 sequence (Q9Y223 406-722 limits assumed): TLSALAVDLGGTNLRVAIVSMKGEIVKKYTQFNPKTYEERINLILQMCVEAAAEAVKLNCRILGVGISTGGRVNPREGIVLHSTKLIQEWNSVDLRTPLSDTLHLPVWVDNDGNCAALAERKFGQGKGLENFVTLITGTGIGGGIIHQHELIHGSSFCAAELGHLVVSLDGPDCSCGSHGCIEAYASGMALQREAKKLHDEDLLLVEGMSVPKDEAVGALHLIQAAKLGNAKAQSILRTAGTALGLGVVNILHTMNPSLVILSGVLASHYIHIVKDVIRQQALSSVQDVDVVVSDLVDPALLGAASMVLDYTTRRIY
Method: N-Acetylmannosamine kinase and N-acetylglucosamine kinase expression and […]
Human N-acetylmannosamine kinase (MNK) was expressed and purified using an established method.1 Therefore, his-tagged MNK was expressed in BL21-CodonPlus (DE3)-RIL Escherichia coli (Stragene). Purification was performed by Ni-NTA affinity chromatography, and subsequently size exclusion chromatography on a SuperdexTM HighLoad 16/600 column (GE Healthcare). […]
To evaluate their purity, protein samples were mixed with SDS-PAGE sample buffer, denatured at 90 °C for 1 min and separated by a 10% SDS-PAGE gel. Proteins were visualized with Coomassie G-250 staining solution (Biorad), and PageRuler Prestained Plus (Biorad) was used as a marker (Figure S1 ).
Figure S1. SDS-PAGE of His-tagged MNK (His-MNK) and GST-tagged GNK
(GST-GNK) after affinity chromatography and size exclusion chromatography.
Apparent molecular masses given by the marker are indicated on the left side.
1 J. Martinez, L. D. Nguyen, S. Hinderlich, R. Zimmer, E. Tauberger, W. Reutter, W. Saenger, H. Fan
2 W.A. Weihofen, M. Berger, H. Chen, W. Saenger, and S. Hinderlich, J. Mol. Biol., 2006, 364, 388.
(1 picture or pasted object on this page, not shown here)
Enzyme activity and inhibition studies using N-acetylmannosamine kinase, N-acetylglucosamine kinase and yeast hexokinase
Evaluation MNK activity in presence of the compounds 11, 12, 14b, 16b and 18b The effects of compounds 11, 12, 14b, 16b, or 18b on MNK enzyme activity were evaluated using a coupled optical assay. 55 µl reaction mixture contained the following buffers and reagents: 39.5 µl buffer A (65 mM MgCl2, 200 mM Tris-HCl, pH 8.1), 5 µl ATP (50 mM), 3.5 µl NADH (30 mM), 2 µl phosphoenolpyruvate (100 mM), 2 U pyruvate-kinase, 2 U lactate-dehydrogenase, 5 µl ManNAc of varying concentrations. Subsequently, 10 µl of the compounds 11, 12, 14b, 16b and 18b were added in varying concentrations. The reaction was initiated by adding 0.6 µg MNK in 35 µL buffer B (10 mM Tris-HCl, 150 mM NaCl, pH 8.0). Samples were incubated at 37°C. Spectrophotometric measurements of NADH concentration was performed at 340 nm. Results obtained were normalized to blanks, consisting of 55 µl reaction mixture, 10 µl H 2O and 35 µl buffer B without MNK.
GNK and hexokinase inhibition assays using compound 14b
To evaluate the specificity of the inhibitor 14b towards other sugar kinases, we performed further inhibition experiments using human GNK and hexokinase (HK) from yeast (Sigma, H-5000). 39.5 µl Buffer A (see above), 5 µl ATP (50 mM), 3.5 µl NADH (30 mM), 2 µl phosphoenolpyruvate (100 mM), 2 U pyruvate-kinase, 2 U lactate-dehydrogenase, 5 µl GlcNAc (7.5 mM, for GNK experiments), or 5 µl ManNAc (7.5 mM, for GNK experiments), or glucose (5 mM, for HK experiments), and 10 µl 14b (varying concentrations) were mixed with either 1 µg GNK or 0.2 µg HK in 35 µL buffer B. The decrease of NADH was measured in a spectrophotometer […]
5 mM for HK activity, respectively (Figure S2).
Figure S2. Inhibition of GNK and HK activity by 14b. Values are means ± SEM of […]

[2] = system: UDP-GlcNAc-2-epimerase/MNK kinase; design: method as in PMID 12067740, PMID 15368395, PMID 22343627; details: 300 μM; cited from earlier work
HepG2 cells = system: HepG2 cells; design: method as in PMID 1312935; details: 1 mM final concentration; cited from earlier work
purified ManNAc kinase = system: purified ManNAc kinase; design: method as in PMID 12067740, PMID 15368395, PMID 22343627; details: 5 mM final concentration; cited from earlier work
Jurkat cells [3] = assay: Cell surface sialylation, 6'-sialyl-LacNAc by FITC-PSL flow cytometry; assay type: cell-based; details: 72 h
Jurkat cells [4] = details: human, 72 h, 100 μM
cell surface sialylation = system: cell surface sialylation; design: method as in PMID 25278018; details: 500 μM final concentration in culture medium; cited from earlier work

IC50 [1]: 3 mM
SMILES: CC(=O)N[C@@H]1C(O)O[C@H](C[Se]C[C@H]2OC(O)[C@@H](NC(C)=O)[C@@H](O)[C@@H]2O)[C@@H](O)[C@@H]1O (stereo partly drawn) [Compound 16b]

fold higher IC50 in comparison to 14b ([1]; MNK IC50 ratio): approximately 500 fold
IC50 [1]: 4.2 mM
SMILES: CC(=O)N[C@@H]1C(O)O[C@H](CSSC[C@H]2OC(O)[C@@H](NC(C)=O)[C@@H](O)[C@@H]2O)[C@@H](O)[C@@H]1O (stereo partly drawn) [Compound 12]

SMILES: CC(=O)NC1C(OP(=O)(O)OP(=O)(O)OCC(C=O)OC(C=O)n2ccc(=O)[nH]c2=O)OC(CO)C(O)C1O (stereo not drawn) [Compound 7, 2′,3′-dialdehydo-UPD-N-acetylglucosamine]
inhibition of the enzyme [2]: 93%

IC50 [1]: > 10 mM
SMILES: CC(=O)N[C@@H]1C(O)O[C@H](CS)[C@@H](O)[C@@H]1O (stereo partly drawn) [Compound 11]

SMILES: CO[C@H]1[C@H](O)[C@@H](CO)OC(O)[C@@H]1NC(C)=O (stereo partly drawn) [Compound 1, 3-O-methyl-N-acetyl-glucosamine]
reduction of incorporation rate of N-GlcNAc and N-ManNAc into glycoproteins (HepG2 cells): 70%

SMILES: CC(=O)NC1C(O)OC(COC(C)=O)C(O)C1O (stereo not drawn) [Compound 3, 6-O-Ac-ManNAc]
inhibition of the enzyme (purified ManNAc kinase): 60%

IC50 [1]: 1.9 mM
SMILES: CCCC[Se]C[C@H]1OC(O)[C@@H](NC(C)=O)[C@@H](O)[C@@H]1O (stereo partly drawn) [Compound 18b]

SMILES: CC(=O)N[C@@H]1C(OC(C)=O)O[C@H](C[Se][Se]C[C@H]2OC(OC(C)=O)[C@@H](NC(C)=O)[C@@H](OC(C)=O)[C@@H]2OC(C)=O)[C@@H](OC(C)=O)[C@@H]1OC(C)=O (stereo partly drawn) [Compound 14a]
reduction of 6'-sialyl-LacNAc entity (Jurkat cells [3]; 50 μM in cell culture medium): approximately 85%
reduction of cell viability (Jurkat cells [4]): approximately 70%

SMILES: CC(=O)N[C@@H]1C(OC(C)=O)O[C@H](C[Se]C[C@H]2OC(OC(C)=O)[C@@H](NC(C)=O)[C@@H](OC(C)=O)[C@@H]2OC(C)=O)[C@@H](OC(C)=O)[C@@H]1OC(C)=O (stereo partly drawn) [Compound 16a]
effect on cell surface sialylation (Jurkat cells [3]; tested concentrations up to 50 μM): no visible effect; also recorded: did not alter cell surface sialylation

SMILES: COC1C(O)C(CO)OC(O)C1NC(C)=O (stereo not drawn) [Compound 2]
cell surface sialylation reduced to (cell surface sialylation): 20%

From PMC6013775, “Inhibition of the key enzyme of sialic acid biosynthesis by C6-Se modified N-acetylmannosamine analogs” (Chemical Science, 2016)
